# Assay results as given in patent US8962648B2, “Tricyclic compounds and PBK inhibitors containing the same” (OncoTherapy Science, Inc., priority 2010, dated 2015).
# Where a name gives a salt, the structure may show the parent alone. Read-outs that look alike come from different tables or passages of the source.
# Tests used:
# [1] = target: PBK (Homo sapiens (Human), UniProt Q96KB5); assay: Kinase assay (IMAP fluorescence polarization, FITC-labeled histone H3 peptide); assay type: biochemical
# Procedure: PBK activity was determined in the presence or absence of compounds using fluorescein isothiocyanate-labeled (FITC-labeled) histone H3 peptide as a substrate. […] The serially diluted compounds, 0.8 ng/micro-L PBK (Carna Biosciences) and 100 nM FITC-labeled histone H3 peptide were reacted in a reaction buffer (20 mM HEPES, 0.01% Tween-20, 0.3 mM MgCl2, 2 mM dithiothreitol, 50 micro-M ATP, pH 7.4) at room temperature for 1 hour. The reaction was stopped by the addition of three fold assay volume of progressive binding solution. […] IC50 values were calculated by nonlinear four parameter fit using SigmaPlot, version 10.0 (Systat Software, Inc.).
# [2] = system: A549 cells; assay: Cell-based assay, cellular growth (Cell Counting Kit-8, 72 hours)
# Procedure: (§1) 100 micro-L of cell suspension was seeded onto 96-well microtiter plate (ViewPlate-96FTC, PerkinElmer). […] Cellular growth was determined using Cell Counting Kit-8 (DOJINDO) at 72 hours after the exposure of the candidate inhibitors. […] Accurate IC50 values were calculated as described previously.
# [3] = system: BT-549 cells; assay: as above; conditions: Homo sapiens, BT549 cells
# Procedure: as §1
# [4] = system: T47D cells; assay: as above
# Procedure: as §1
# [5] = system: HT-1197 cells; assay: Cell-based assay, cellular growth (Cell Counting Kit-8, 72 hours), PBK-negative control cells
# Procedure: as §1
# [6] = PBK 0.8 ng/micro-L, 50 micro-M ATP, 100 nM FITC-labeled histone H3 peptide, room temperature 1 hour
# [7] = Homo sapiens, HT1197 cells (PBK-negative control)
# [8] = PBK 0.8 ng/micro-L, 50 micro-M ATP, 100 nM FITC-labeled histone H3 peptide, room temperature 1 hour, hydrobromide
# [9] = HT1197 cells (PBK-negative control), hydrobromide
# Sequence of PBK (Q96KB5 whole entry): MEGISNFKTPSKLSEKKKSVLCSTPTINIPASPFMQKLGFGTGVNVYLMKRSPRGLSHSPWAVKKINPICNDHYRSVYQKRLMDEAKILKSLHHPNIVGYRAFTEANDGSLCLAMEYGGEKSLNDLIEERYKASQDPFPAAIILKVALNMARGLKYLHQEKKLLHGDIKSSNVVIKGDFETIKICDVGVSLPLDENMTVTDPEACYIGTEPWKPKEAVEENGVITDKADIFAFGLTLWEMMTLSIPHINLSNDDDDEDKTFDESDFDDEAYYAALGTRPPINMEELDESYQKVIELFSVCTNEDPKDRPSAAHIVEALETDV
Structure (SMILES),"IC50 ([2]; Homo sapiens, A549, 72 h) [nM]",IC50 [3] [nM],"IC50 ([4]; Homo sapiens, T47D, 72 h) [nM]","IC50 [1, 6] [nM]",IC50 [1] [nM],"IC50 ([5]; Homo sapiens, HT1197, 72 h) [nM]",further results
"CC(N)c1ccc(-c2c(O)cc(Cl)c3[nH]c(=O)c4sccc4c23)cc1 (stereo not drawn) [Compound 1041, 9-(4-(1-aminoethyl)phenyl)-6-chloro-8-hydroxythieno[2,3-c]quinolin-4(5H)-one hydrochloride]",160,190,340,–,12,650,–
"CN[C@H](C)c1ccc(-c2c(O)ccc3[nH]c(=O)c4sccc4c23)cc1 [Compound 1052, (R)-8-hydroxy-9-(4-(1-(methylamino)ethyl)phenyl)thieno[2,3-c]quinolin-4(5H)-one hydrochloride]",170,170,320,1.3,–,450,–
"C[C@@H](N)c1ccc(-c2c(O)cc(Cl)c3[nH]c(=O)c4sccc4c23)cc1 [Compound 1081, (R)-9-(4-(1-aminoethyl)phenyl)-6-chloro-8-hydroxythieno[2,3-c]quinolin-4(5H)-one hydrochloride]",100,86,170,–,8.6,390,–
"CC(CN(C)C)c1ccc(-c2c(O)ccc3[nH]c(=O)c4sccc4c23)cc1 (stereo not drawn) [Compound 1112, 9-(4-(1-(dimethylamino)propan-2-yl)phenyl)-8-hydroxythieno[2,3-c]quinolin-4(5H)-one hydrochloride]",–,210,–,–,3.3,–,"IC50 ([2]; Homo sapiens): 250 nM; IC50 ([4]; Homo sapiens): 470 nM; IC50 [5, 7]: 640 nM"
"NCCc1ccc(-c2c(O)cc(Cl)c3[nH]c(=O)c4sccc4c23)cc1 [Compound 1133, 9-(4-(2-aminoethyl)phenyl)-6-chloro-8-hydroxythieno[2,3-c]quinolin-4(5H)-one hydrochloride]",180,150,230,–,20,870,–
"COc1ccc2[nH]c(=O)c3sccc3c2c1-c1ccc(S(=O)(=O)NCCCl)cc1 [Compound 1139, N-(2-chloroethyl)-4-(8-methoxy-4-oxo-4,5-dihydrothieno[2,3-c]quinolin-9-yl)benzenesulfonamide]",–,17,–,70,–,–,"IC50 ([2]; Homo sapiens): 23 nM; IC50 ([4]; Homo sapiens): 200 nM; IC50 [5, 7]: 14000 nM"
"COc1ccc2[nH]c(=O)c3sccc3c2c1-c1ccc([C@@H](C)CN)cc1 [Compound 1161, (R)-9-(4-(1-aminopropan-2-yl)phenyl)-8-methoxythieno[2,3-c]quinolin-4(5H)-one hydrochloride]",270,220,450,2,–,820,–
"C[C@@H](CN(C)C)c1ccc(-c2c(O)ccc3[nH]c(=O)c4sccc4c23)cc1 [Compound 1188, (R)-9-(4-(1-(dimethylamino)propan-2-yl)phenyl)-8-hydroxythieno[2,3-c]quinolin-4(5H)-one hydrochloride]",–,160,–,–,2.5,–,"IC50 ([2]; Homo sapiens): 160 nM; IC50 ([4]; Homo sapiens): 290 nM; IC50 [5, 7]: 430 nM"
"Cc1cc(O)c(-c2ccc([C@H](C)CN)c(F)c2)c2c1[nH]c(=O)c1sccc12 [Compound 1304, (S)-9-(4-(1-aminopropan-2-yl)-3-fluorophenyl)-8-hydroxy-6-methylthieno[2,3-c]quinolin-4(5H)-one hydrobromide]",–,–,–,–,–,–,"IC50 [1, 8]: 13 nM; IC50 ([2]; hydrobromide): 99 nM; IC50 ([4]; hydrobromide): 120 nM; IC50 [5, 9]: 340 nM"
"CNC[C@H](C)c1ccc(-c2c(O)cc(C)c3[nH]c(=O)c4sccc4c23)cc1 [Compound 1306, (R)-8-hydroxy-6-methyl-9-(4-(1-(methylamino)propan-2-yl)phenyl)thieno[2,3-c]quinolin-4(5H)-one hydrochloride]",–,–,–,–,–,–,"IC50 ([1]; PBK 0.8 ng/micro-L, 50 micro-M ATP, 100 nM FITC-labeled histone H3 peptide, room temperature 1 hour, hydrochloride): 7.3 nM; IC50 ([2]; hydrochloride): 20 nM; IC50 ([4]; hydrochloride): 35 nM; IC50 ([5]; HT1197 cells (PBK-negative control), hydrochloride): 73 nM"
"Cc1cc(O)c(-c2ccc([C@@H](C)CN)c(F)c2)c2c1[nH]c(=O)c1sccc12 [Compound 1319, (R)-9-(4-(1-aminopropan-2-yl)-3-fluorophenyl)-8-hydroxy-6-methylthieno[2,3-c]quinolin-4(5H)-one hydrobromide]",–,–,–,–,–,–,"IC50 [1, 8]: 3.4 nM; IC50 ([2]; hydrobromide): 14 nM; IC50 ([4]; hydrobromide): 16 nM; IC50 [5, 9]: 54 nM"
"Cc1cc(O)c(-c2ccc([C@@H](C)CN(C)C)cc2)c2c1[nH]c(=O)c1sccc12 [Compound 1324, (R)-9-(4-(1-(dimethylamino)propan-2-yl)phenyl)-8-hydroxy-6-methylthieno[2,3-c]quinolin-4(5H)-one hydrochloride]",–,30,–,–,–,–,IC50 ([2]; Homo sapiens): 24 nM; IC50 ([4]; Homo sapiens): 66 nM
"CCN(C)C[C@H](C)c1ccc(-c2c(O)cc(C)c3[nH]c(=O)c4sccc4c23)cc1 [Compound 1379, (R)-9-(4-(1-(ethyl(methyl)amino)propan-2-yl)phenyl)-8-hydroxy-6-methylthieno[2,3-c]quinolin-4(5H)-one hydrochloride]",110,–,280,–,76,310,–
"CC[C@@H](CNC)c1ccc(-c2c(O)cc(C)c3[nH]c(=O)c4sccc4c23)cc1 [Compound 1380, (R)-8-hydroxy-6-methyl-9-(4-(1-(methylamino)butan-2-yl)phenyl)thieno[2,3-c]quinolin-4(5H)-one hydrochloride]",96,–,240,–,85,370,–
"Cc1cc(O)c(-c2ccc([C@H](C)CN(C)C)c(F)c2)c2c1[nH]c(=O)c1sccc12 [Compound 1399, (S)-9-(4-(1-(dimethylamino)propan-2-yl)-3-fluorophenyl)-8-hydroxy-6-methylthieno[2,3-c]quinolin-4(5H)-one hydrochloride]",180,–,450,–,58,470,–

# Continued, in another order:
"IC50 ([2]; Homo sapiens, A549, 72 h) [nM]",IC50 [3] [nM],"IC50 ([4]; Homo sapiens, T47D, 72 h) [nM]","IC50 [1, 6] [nM]",Structure (SMILES),IC50 [1] [nM],"IC50 ([5]; Homo sapiens, HT1197, 72 h) [nM]",further results
110,140,290,42,"C[C@H](c1ccc(-c2c(O)cc(Cl)c3[nH]c(=O)c4sccc4c23)cc1)N(C)C [Compound 1126, (R)-6-chloro-9-(4-(1-(dimethylamino)ethyl)phenyl)-8-hydroxythieno [2,3-c]quinolin-4(5H)-one hydrochloride]",–,320,–
90,97,190,14,"CN[C@H](C)c1ccc(-c2c(O)cc(Cl)c3[nH]c(=O)c4sccc4c23)cc1 [Compound 1132, (R)-6-chloro-8-hydroxy-9-(4-(1-(methylamino)ethyl)phenyl)thieno[2,3-c]quinolin-4(5H)-one hydrochloride]",–,320,–
35,32,57,8.6,"CC(CN)c1ccc(-c2c(O)cc(Cl)c3[nH]c(=O)c4sccc4c23)cc1 (stereo not drawn) [Compound 1136, 9-(4-(1-aminopropan-2-yl)phenyl)-6-chloro-8-hydroxythieno[2,3-c]quinolin-4(5H)-one hydrochloride]",–,180,–
210,170,250,45,"NCCc1ccc(-c2c(O)cc(Br)c3[nH]c(=O)c4sccc4c23)cc1 [Compound 1142, 9-(4-(2-aminoethyl)phenyl)-6-bromo-8-hydroxythieno[2,3-c]quinolin-4(5H)-one hydrochloride]",–,1000,–
17,13,26,4.4,"C[C@@H](CN)c1ccc(-c2c(O)cc(Cl)c3[nH]c(=O)c4sccc4c23)cc1 [Compound 1166, (R)-9-(4-(1-aminopropan-2-yl)phenyl)-6-chloro-8-hydroxythieno[2,3-c]quinolin-4(5H)-one hydrochloride]",–,120,–
27,24,38,17,"C[C@@H](CN)c1ccc(-c2c(O)cc(Br)c3[nH]c(=O)c4sccc4c23)cc1 [Compound 1176, (R)-9-(4-(1-aminopropan-2-yl)phenyl)-6-bromo-8-hydroxythieno[2,3-c]quinolin-4(5H)-one hydrochloride]",–,100,–
630,450,860,3,"COc1ccc2[nH]c(=O)c3sccc3c2c1-c1ccc(C(C)CN)c(F)c1 (stereo not drawn) [Compound 1179, 9-(4-(1-aminopropan-2-yl)-3-fluorophenyl)-8-methoxythieno[2,3-c]quinolin-4(5H)-one hydrochloride]",–,1900,–
200,190,190,1.3,"CNC[C@H](C)c1ccc(-c2c(O)ccc3[nH]c(=O)c4sccc4c23)cc1 [Compound 1187, (R)-8-hydroxy-9-(4-(1-(methylamino)propan-2-yl)phenyl)thieno[2,3-c]quinolin-4(5H)-one hydrochloride]",–,320,–
900,–,1400,60,"Cc1cc(O)c(-c2ccc(N(C)CCN)cc2)c2c1[nH]c(=O)c1sccc12 [Compound 1400, 9-(4-((2-aminoethyl)(methyl)amino)phenyl)-8-hydroxy-6-methylthieno[2,3-c]quinolin-4(5H)-one hydrochloride]",–,2800,–
